Source: PubChem BioAssay (NCI)
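Dose response: 5 concentrations. Exposure: 48 h. Format: 96-well plates. Endpoint: linear interpolation; highest concentration if not reached. TGI: concentration producing complete growth inhibition.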

Legend:
Test in all cases: NCI tumour cell line growth inhibition, 48 h
[1] = test system: NCI-H460 lung
[2] = test system: SF-539 CNS
[3] = test system: OVCAR-4 ovarian
[4] = test system: CAKI-1 renal
[5] = test system: HT29 colon
[6] = test system: NCI-H522 lung
[7] = test system: RXF 393 renal
[8] = test system: HCT-116 colon
[9] = test system: HCC-2998 colon
[10] = test system: SK-MEL-5 melanoma
[11] = test system: A498 renal
[12] = test system: XF 498 CNS
[13] = test system: P388 leukemia
[14] = test system: NCI-H226 lung
[15] = test system: CCRF-CEM leukemia
[16] = test system: DLD-1 colon
[17] = test system: P388/ADR leukemia
[18] = test system: UACC-257 melanoma
[19] = test system: SK-MEL-2 melanoma
[20] = test system: HCT-15 colon
[21] = test system: HL-60(TB) leukemia
[22] = test system: SF-295 CNS
[23] = test system: NCI/ADR-RES ovarian
[24] = test system: EKVX NSCLC
[25] = test system: OVCAR-5 ovarian
[26] = test system: SNB-19 CNS
[27] = test system: K-562 leukemia
[28] = test system: HOP-18 NSCLC
[29] = test system: HOP-62 NSCLC
[30] = test system: M19-MEL melanoma
[31] = test system: SNB-75 CNS
[32] = test system: LOX IMVI melanoma
[33] = test system: COLO 205 colon
[34] = test system: SW-620 colon
[35] = test system: IGROV1 ovarian
[36] = test system: OVCAR-3 ovarian
[37] = test system: KM20L2 colon
[38] = test system: U251 CNS
[39] = test system: MALME-3M melanoma
[40] = test system: A549 NSCLC
[41] = test system: SK-MEL-28 melanoma
[42] = test system: SF-268 CNS
[43] = test system: UO-31 renal
[44] = test system: HOP-92 NSCLC
[45] = test system: UACC-62 melanoma
[46] = test system: MOLT-4 leukemia
[47] = test system: SN12C renal
[48] = test system: MCF7 breast
[49] = test system: DMS 114 small cell lung
[50] = test system: KM12 colon
[51] = test system: SNB-78 CNS
[52] = test system: OVCAR-8 ovarian
[53] = test system: SK-OV-3 ovarian
[54] = test system: SN12K1 renal
[55] = test system: RPMI-8226 leukemia
[56] = test system: DMS 273 small cell lung

Cn1c(/C=C/CO)c(CO)c2c1C(=O)C=C(N1CC1)C2=O
TGI [1]: < 0.01 µM | TGI [2]: < 0.0163 µM | TGI [3]: 0.223 µM | TGI [4]: 0.0588 µM | TGI [5]: 0.0534 µM | TGI [6]: < 0.018 µM | TGI [7]: 0.0112 µM | TGI [8]: 1.02 µM | TGI [9]: 0.0203 µM | TGI [10]: < 0.015 µM | TGI [11]: 0.0235 µM | TGI [12]: 0.0171 µM | TGI [13]: 4.9 µM | TGI [14]: 0.0602 µM | TGI [15]: 23.9 µM | TGI [16]: 0.662 µM | TGI [17]: 3.91 µM | TGI [18]: 0.018 µM | TGI [19]: < 0.01 µM | TGI [20]: < 0.0159 µM | TGI [21]: 0.682 µM | TGI [22]: < 0.01 µM | TGI [23]: 0.0346 µM | TGI [24]: 0.178 µM | TGI [25]: < 0.0273 µM | TGI [26]: 0.0369 µM | TGI [27]: 0.378 µM | TGI [28]: < 0.01 µM | TGI [29]: < 0.0139 µM | TGI [30]: < 0.011 µM | TGI [31]: < 0.0124 µM | TGI [32]: 0.0102 µM | TGI [33]: 0.0236 µM | TGI [34]: 0.104 µM | TGI [35]: 0.197 µM | TGI [36]: 0.0561 µM | TGI [37]: 0.0639 µM | TGI [38]: 0.0101 µM | TGI [39]: 0.024 µM | TGI [40]: < 0.01 µM | TGI [41]: 0.202 µM | TGI [42]: 0.0379 µM | TGI [43]: < 0.01 µM | TGI [44]: 0.488 µM | TGI [45]: < 0.0115 µM | TGI [46]: 4.15 µM | TGI [47]: 0.0253 µM | TGI [48]: 0.0156 µM | TGI [49]: 0.0153 µM | TGI [50]: 0.0172 µM | TGI [51]: 7.21 µM | TGI [52]: 0.0936 µM | TGI [53]: 0.0855 µM | TGI [54]: 0.0224 µM | TGI [55]: 0.0805 µM | TGI [56]: < 0.0107 µM
